Test results taken from patent US6147095A (priority 1999, dated 2000).
“Also recorded” adds a separate entry of the source. Where two headings read alike, the source gives them in different places. Blank lines part the entries; values can stand above or below the molecule they belong to.

Experiments:
[1] = human, in vivo
Protocol: The drugs were then coadministered for 10 days, after which the pharmacokinetics of each were re-evaluated and compared with baseline data. The study was conducted in 14 healthy volunteers (13 males and 1 female) with a mean age of 29.9 years (range, 21.3-43.9 years), height of 174.4 cm (range, 162.6-185.4 cm), and weight of 76.5 kg (range, 65.1-88.2 kg). Twelve subjects were Caucasian and two were of African descent. Ten subjects completed all aspects of the study. Pharmacokinetic analyses were based on the results obtained in these subjects. […] Detection was by UV absorbance at 260 nm.

clinical [2] = details: human, in vivo, po, CLPO (oral clearance)
Protocol: (§1) Baseline pharmacokinetic data for each drug were obtained under pharmacokinetic steady-state conditions following 7 days of dosing. Each drug was then co-administered for 10 days, at which time the pharmacokinetics of each was re-evaluated and compared with baseline data. […] All subjects were Caucasian. […] Pharmacokinetic analyses were based on results obtained in these subjects.
Detection was by UV absorbance at 260 nm.
(§2) Treatment effects on pharmacokinetic parameters were assessed using Wilcoxon's Signed Rank Test.

CYP3A [3] = assay: Enzyme induction; details: previous studies / in vitro and in vivo data
[4] = human, in vivo; remark: listed apart in the source
Protocol: A pharmacokinetic profile was obtained under steady-state conditions following 7 days of dosing. […] Forty-four subjects were Caucasian, 2 were Black, and 2 were Asian.
An aliquot (0.150 mL) was initially injected onto a short Zorbax® RX-C8 column which was connected via a column switching valve to the analytical column, Zorbax® RX-C8 column. The mobile phase was composed of acetonitrile:methanol:0.1% TFA in water, (40:35:25, v/v). Detection was by UV absorbance at 260 nm.
(§3) Pharmacokinetic parameters such as AUC, Cmax, tmax, oral clearance, and terminal half-life, were determined using standard noncompartmental techniques.

HIV = details: reported for tipranavir; cited from earlier work
[5] = Table 1; cited from earlier work
[6] = Tipranavir drug-drug interaction potential (Table 1); details: with tipranavir
[7] = cited from earlier work
[8] = human, in vivo; remark: listed apart in the source
Protocol: as §1
Plasma samples were assayed for delavirdine concentrations using a validated, sensitive and specific isocratic high performance liquid chromatographic (HPLC) method: one for the upper concentration range, and one for the lower concentration range. […] The supernatant was mixed with buffer and directly injected. Chromatographic separation was achieved using a Brownlee cyano guard column and an analytical column, DuPont Zorbax® SB CN.
as §2

[9] = system: cytochrome P450 3A (CYP3A); details: known property; cited from earlier work
CYP3A [10] = details: cited from earlier work
CYP3A [11] = details: delavirdine 200, 300, and 400 mg TID, HIV-1 infected patients, serial erythromycin breath tests; cited from earlier work
CYP3A [12] = details: Table 1; cited from earlier work
clinical [13] = type: in vivo, human
Description: The drugs were then coadministered for 10 days, after which the pharmacokinetics of each were re-evaluated and compared with baseline data. […] Twelve subjects were Caucasian and two were of African descent. Ten subjects completed all aspects of the study. Pharmacokinetic analyses were based on the results obtained in these subjects. […] Ritonavir and the internal standard (IS) were extracted from human plasma by liquid-liquid extraction with an ethyl acetate mixture.

[14] = Study 2: pharmacokinetics of ritonavir co-administered with tipranavir in healthy volunteers; type: in vivo, human
Protocol: Both groups received their assigned dose of tipranavir continuously throughout the study period. […] The pharmacokinetics of tipranavir when coadministered with ritonavir were evaluated and compared with baseline data, while the ritonavir data were compared to historical data. The study was conducted in 19 healthy volunteers (16 males and 3 females) with a mean age of 30 years (range, 19-52 years), height of 177.1 cm (range, 162.6-190.5 cm), and weight of 76.7 kg (range, 57.3-95.0 kg). Eighteen subjects were Caucasian […]. […] Pharmacokinetic analyses were based on those subjects completing the baseline evaluation and at least one period of concomitant drug administration. […] Ritonavir and the internal standard (IS) were extracted from human plasma by liquid-liquid extraction with an ethyl acetate mixture.

[15] = human, in vivo; remark: listed apart in the source
Protocol: (§4) A pharmacokinetic profile was obtained under steady-state conditions following 7 days of dosing.
(§5) After elution from the SPE, a C-18AR analytical column was used to perform the chromatographic separation: the mobile phase was a gradient of methanol and 25 mM ammonium acetate. […] Retention times were approximately 1.5 minutes.
as §3

[16] = Example 4: pharmacokinetics of ritonavir oral solution with tipranavir SEDDS in healthy volunteers
Protocol: as §4, §5, §3

[17] = 200 mg BID with tipranavir 1250 mg BID vs ritonavir 500 mg BID alone

- CL/F (clinical [2]): 468 mL/min
- CLPO (oral clearance) [4]: 12.7 (6.1-23.7) L/h
- effect on apparent terminal half-life ([4]; po): not significantly affected by ritonavir
Compound: CCC[C@@]1(CCc2ccccc2)CC(O)=C([C@H](CC)c2cccc(NS(=O)(=O)c3ccc(C(F)(F)F)cn3)c2)C(=O)O1 (relative stereo) [Tipranavir, [R-(R*,R*)]-N-[3-[1-[5,6-Dihydro-4-hydroxy-2-oxo-6-(2-phenylethyl)-6-propyl-2H-pyran-3-yl]propyl]phenyl]-5-(trifluoromethyl)-2-pyridinesulfonamide]
- effect on elimination half-life (t1/2) [1]: not accompanied by a prolongation of the elimination half-life
- enzyme induction by tipranavir (CYP3A [3]): induces its own metabolism over a wide dosage range; also recorded: enzyme inducer
- IC90 (HIV): 1000 nM

Compound: Nc1ccn([C@@H]2CS[C@H](CO)O2)c(=O)n1 [3TC]
- Principal Route(s) of Elimination [5]: Excreted unchanged in urine

Compound: Cc1cn([C@H]2C[C@H](N=[N+]=[N-])[C@@H](CO)O2)c(=O)[nH]c1=O [AZT]
- Principal Route(s) of Elimination [5]: Conjugation/renal excretion
- Potential for Clinically Significant Interaction [6]: Low

- Potential for Clinically Significant Interaction [6]: High (and unfavorable)
Compound: CC(C)CN(C[C@@H](O)[C@H](Cc1ccccc1)NC(=O)O[C@H]1CCOC1)S(=O)(=O)c1ccc(N)cc1 [Amprenavir]
- Principal Route(s) of Elimination [5]: CYP3A
- decrease of AUC by rifampin ([7]; Table 1, protease inhibitors): ~ 80%

- CLPO (oral clearance) [8]: 5.18 (1.5-7.8) L/h
Compound: CC(C)Nc1cccnc1N1CCN(C(=O)c2cc3cc(NS(C)(=O)=O)ccc3[nH]2)CC1 [Delavirdine]
- inhibition of CYP3A [9]: inhibits cytochrome P450 monooxygenase (CYP3A)
- inhibition of CYP3A in vitro (CYP3A [10]): non-competitively inhibit CYP3A
- inhibition of CYP3A in vivo (CYP3A [11]): rapid and significant inhibition of CYP3A
- delavirdine clearance with rifabutin or rifampin ([7]; coadministration of either rifabutin or rifampin): marked increase in delavirdine clearance

Compound: O=C1Nc2ccc(Cl)cc2[C@@](C#CC2CC2)(C(F)(F)F)O1 [Efavirenz]
- CYP3A induction (CYP3A [12]): possible CYP3A inducer

Compound: CC(C)(C)NC(=O)[C@@H]1CN(Cc2cccnc2)CCN1C[C@@H](O)C[C@@H](Cc1ccccc1)C(=O)N[C@H]1c2ccccc2C[C@H]1O [Indinavir]
- decrease of AUC by rifampin ([7]; Table 1, protease inhibitors): ~ 80%

Compound: Cc1c(O)cccc1C(=O)N[C@@H](CSc1ccccc1)[C@H](O)CN1C[C@H]2CCCC[C@H]2C[C@H]1C(=O)NC(C)(C)C [Nelfinavir]
- decrease of AUC by rifampin ([7]; human, in vivo): ~ 80%

Compound: Cc1ccnc2c1NC(=O)c1cccnc1N2C1CC1 [Nevirapine]
- decrease of nevirapine concentrations by rifampin ([7]; in vivo): ~ 40%

- CL/F (clinical [13]; human, in vivo, po): 85 mL/min
- CLPO (oral clearance) (clinical [13]; human, in vivo, po): 5.1 (3.9-7.8) L/h
- Tmax (clinical [13]; human, in vivo, po): 3.0 (1.0-4.0) h
- half-life (clinical [13]; human, plasma, po, 500 mg): 2.9 h
- decrease in mean steady-state ritonavir concentrations (clinical [13]; ritonavir 500 mg BID with tipranavir 1350 mg BID vs alone): ~5 -fold
- effect of tipranavir on blood levels of ritonavir ([14]; Examples 1 and 2): lower blood levels of ritonavir
- ritonavir concentrations ([14]; co-administration of lowest tipranavir dose tested (600 mg BID)): significantly and substantially declined
- effect on elimination half-life ([14]; human, in vivo): shortening of the elimination hall-life
- decrease in steady-state plasma ritonavir concentrations ([14]; ritonavir 500 mg BID with tipranavir 600 or 900 mg BID vs ritonavir alone): ~4 -fold
- decrease of median ritonavir AUC [16, 17]: 12 -fold
- decrease of median ritonavir Cmax [16, 17]: 10 -fold
- decrease of median ritonavir Cmin [16, 17]: 54 -fold
- ritonavir concentrations in the presence of tipranavir ([16]; presence of tipranavir): greatly decreased
Compound: CC(C)c1nc(CN(C)C(=O)N[C@H](C(=O)N[C@@H](Cc2ccccc2)C[C@H](O)[C@H](Cc2ccccc2)NC(=O)OCc2cncs2)C(C)C)cs1 [Ritonavir, (2S,3S,5S)-5(N-(N-((N-Methyl-N-((2-isopropyl-4-thiazoly)methyl)amino)carbonyl)-L-valinyl)amino)-2-(N-((5-thiazoly)methoxycarbonyl)amino)-1,6-diphenyl-3-hydroxhexane]
- effect on apparent half-life of elimination (clinical [13]; human, in vivo): shorter apparent half-life of elimination
- plasma ritonavir concentrations vs reported values (clinical [13]; ritonavir 500 mg BID alone): slightly higher than those reported in HIV-infected patients receiving ritonavir 600 mg doses twice daily
- plasma ritonavir concentrations vs published values (clinical [13]; ritonavir 500 mg BID with tipranavir): lower than published values for ritonavir 300 mg doses administered twice daily to HIV-infected patients
- effect on apparent elimination half-life [15]: decreased relative to ritonavir given alone

- Potential for Clinically Significant Interaction [6]: High (and unfavorable)
Compound: CC(C)(C)NC(=O)[C@@H]1C[C@@H]2CCCC[C@@H]2CN1C[C@@H](O)[C@H](Cc1ccccc1)NC(=O)[C@H](CC(N)=O)NC(=O)c1ccc2ccccc2n1 [Saquinavir]
- decrease of AUC by rifampin ([7]; human, in vivo): ~ 80%

- Potential for Clinically Significant Interaction [6]: Low
Compound: O=c1[nH]cnc2c1ncn2[C@H]1CC[C@@H](CO)O1 [ddI]
- Principal Route(s) of Elimination [5]: Tubular secretion
